Source: EP4104902B1, “COMPOUNDS AND M[…] SAME” (priority 2020, dated 2021)

Test system: recombinant rabies virus 1088 strain expressing Gaussia Luciferase (GLuc) (1088/GLuc)
Format: cell-based
Details: read-out: Anti-rabies activity

Structure (SMILES)	IC50 [µM]
CC(C)CCN1CC2CC3(C(=O)NC(C)C)NCC2C1C3CCCNC(=N)N (stereo not shown) [IF-214]	10 to 30
NC(=O)CCNC(=O)C12CC3CN(CCc4ccccc4)C(C3CN1)C2CC(N)=O (stereo not shown) [IF-219]	10 to 30
NC(=O)CC1C2C3CNC1(C(=O)NCc1cccc4ccccc14)CC3CN2CCc1ccccc1 (stereo not shown) [IF-223]	10 to 30
CC(C)CNC(=O)C12CC3CN(Cc4cccc5ccccc45)C(C3CN1)C2CC(N)=O (stereo not shown) [IF-226]	10 to 30
NC(=O)CC1C2C3CNC1(C(=O)NCCO)CC3CN2Cc1cccc2ccccc12 (stereo not shown) [IF-230]	10 to 30
CC(C)CCNC(=O)C12CC3CN(CCCNC(=N)N)C(C3CN1)C2Cc1cccc2ccccc12 (stereo not shown) [IF-356]	10 to 30
N=C(N)NCCCN1CC2CC3(C(=O)NCCc4ccccc4)NCC2C1C3Cc1ccc(O)cc1 (stereo not shown) [IF-359]	10 to 30
O=C(O)CCNC(=O)C12CC3CN(CC4CCCCC4)C(C3CN1)C2Cc1cccc2ccccc12 (stereo not shown) [IF-416]	10 to 30
O=C(O)CCNC(=O)C12CC3CN(Cc4ccc(F)cc4)C(C3CN1)C2Cc1cccc2ccccc12 (stereo not shown) [IF-417]	10 to 30
O=C(O)CCC1C2C3CNC1(C(=O)NCc1cccc4ccccc14)CC3CN2CC1CCCCC1 (stereo not shown) [IF-419]	10 to 30
CC(C)CCC1C2C3CNC1(C(=O)NCc1cccc4ccccc14)CC3CN2CCC(=O)O (stereo not shown) [IF-422]	10 to 30
CC(C)CN1CC2CC3(C(=O)NCCC(=O)O)NCC2C1C3Cc1cccc2ccccc12 (stereo not shown) [IF-428]	10 to 30
NC(=O)CCNC(=O)C12CC3CN(Cc4cccc5ccccc45)C(C3CN1)C2Cc1ccc(O)cc1 (stereo not shown) [IF-435]	< 5
CC(C)CCN1CC2CC3(C(=O)NCCc4ccccc4)NCC2C1C3CC(C)C (stereo not shown) [IF-437]	10 to 30
O=C(NCCc1ccccc1)C12CC3CN(CC4CCCCC4)C(C3CN1)C2Cc1ccc(O)cc1 (stereo not shown) [IF-439]	< 5
O=C(O)CCNC(=O)C12CC3CN(CCO)C(C3CN1)C2Cc1cccc2ccccc12 (stereo not shown) [IF-444]	10 to 30
CC(C)CCN1CC2CC3(C(=O)NCc4ccc(O)cc4)NCC2C1C3CCC(=O)O (stereo not shown) [IF-445]	10 to 30

Structure (SMILES)	IC50 [µM]
O=C(O)CCC1C2C3CNC1(C(=O)NCc1ccc(O)cc1)CC3CN2CC1CCCCC1 (stereo not shown) [IF-447]	10 to 30
O=C(O)CCN1CC2CC3(C(=O)NCCO)NCC2C1C3Cc1cccc2ccccc12 (stereo not shown) [IF-452]	10 to 30
CC(C)CNC(=O)C12CC3CN(CCC(=O)O)C(C3CN1)C2CCc1ccccc1 (stereo not shown) [IF-454]	10 to 30
CC(C)CNC(=O)C12CC3CN(CCC(=O)O)C(C3CN1)C2Cc1ccc(O)cc1 (stereo not shown) [IF-455]	10 to 30
CC(C)CCC1C2C3CNC1(C(=O)NCc1ccc(O)cc1)CC3CN2CCC(=O)O (stereo not shown) [IF-458]	10 to 30
O=C(NCc1cccc2ccccc12)C12CC3CN(Cc4ccccc4)C(C3CN1)C2Cc1ccccc1 (stereo not shown) [IF-805]	10 to 30
CC(C)CC1C2C3CNC1(C(=O)NCc1ccc(F)cc1)CC3CN2Cc1ccccc1 (stereo not shown) [IF-807]	< 5
CC(C)CN1CC2CC3(C(=O)NCc4ccc(F)cc4)NCC2C1C3Cc1ccccc1 (stereo not shown) [IF-815]	< 5
CC(C)CCN1CC2CC3(C(=O)NCCC(=O)O)NCC2C1C3CCc1ccccc1 (stereo not shown) [IF-830]	10 to 30
CC(C)CC1C2C=NC3(C(=O)NCc4ccccc4)C(C2)CN(Cc2ccc(Cl)cc2)C13 (stereo not shown) [IIB-83]	< 5
CC(C)CC1C2C=NC3(C(=O)NCc4ccccc4)C(C2)CN(Cc2cccc(Cl)c2)C13 (stereo not shown) [IIB-84]	< 5
COc1ccc(CN2CC3CC4C=NC3(C(=O)NCc3ccccc3)C2C4CC(C)C)cc1 (stereo not shown) [IIB-85]	5 to 10
Cc1ccc(CN2CC3CC4C=NC3(C(=O)NCc3ccccc3)C2C4CC(C)C)cc1 (stereo not shown) [IIB-86]	5 to 10
CC(C)CC1C2C=NC3(C(=O)NCc4ccccc4)C(C2)CN(Cc2ccc(N(C)C)cc2)C13 (stereo not shown) [IIB-94]	5 to 10
CN1CC2CC3C=NC2(C(=O)NCCc2cccc4cccnc24)C1C3Cc1ccccc1 (stereo not shown) [IIB-329]	< 5
CN1CC2CC3C=NC2(C(=O)NCCc2cccc4ncccc24)C1C3Cc1ccccc1 (stereo not shown) [IIB-330]	< 5
COc1ccc(CNC(=O)C23N=CC4CC2CN(CC(C)C)C3C4CCc2ccccc2)cc1 (stereo not shown) [IIB-333]	< 5
